Data taken from patent US20230416239A1, “COMPOUNDS AND METHODS FOR TREATING A CYTOKINE-MEDIATED DISEASE” (CONSERVATOIRE NATIONAL DES ARTS ET MÉTIERS, priority 2020, published 2023).

Legend:
IL-13 = IL-13 (Homo sapiens, UniProt P35225); test: Immunoassay binding test, IL-13; conditions: for IC50: IL-13 400 ng/ml, receptor 100 ng/ml, read-out: BINDING IL13 IC50
Experimental: (§1) Microtiter plates (96 wells) are covered with 100 μl of receptor per well, and incubated overnight at 4° C. The following day, after 2 washes in PBS/Tween20, the plates are saturated with 150 μl of PBS/BSA 2% per well, for 2 h at 37° C. Synthetic compounds are diluted in series (final concentrations: 100 to 0.78 μM) then a fixed amount of cytokine in PBS/BSA 1% is added to the compounds, in a final volume of 120 μl per well. […] The cytokine is diluted in series (six concentrations) in a final volume of 120 μl per well. […] The different mixtures are incubated for 2 h at 37° C. 100 μl of each mixture are then transferred to the microtiter plate, respecting the plate plan previously defined and incubated overnight at 4° C. After three washes, 100 μl of biotinylated anti-cytokine secondary antibody are added to each well, then incubated for 2 h at 37° C. After three washes, 100 μl of Avidin-HRP (1/500th dilution) are added and incubated for 30 minutes at 37° C. […] The plates are then read with a spectrophotometer at 450 nm, measuring the optical density for each well.
(§2) This binding test is carried out with different cytokines: TNFa, IL-4, IL-6 and IL-13. For IL-6, the incubation of molecules with the cytokine also requires the presence of IL-6Ra at a final concentration of 200 ng/ml.
(§3) The final concentrations used for each of the cytokines are presented below: […]

IL-4 = biological target: T1, IL-4 (Homo sapiens, UniProt P05112); test: Immunoassay binding test, IL-4; conditions: for IC50: IL-4 400 ng/ml, receptor 100 ng/ml, read-out: BINDING IL4 IC50
T1 sequence (P05112 25-153): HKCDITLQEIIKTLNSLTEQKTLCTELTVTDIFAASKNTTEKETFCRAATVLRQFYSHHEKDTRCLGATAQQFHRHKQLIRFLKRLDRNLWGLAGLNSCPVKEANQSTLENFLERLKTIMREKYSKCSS
Experimental: (§4) Microtiter plates (96 wells) are covered with 100 μl of receptor per well, and incubated overnight at 4° C. The following day, after 2 washes in PBS/Tween20, the plates are saturated with 150 μl of PBS/BSA 2% per well, for 2 h at 37° C. Synthetic compounds are diluted in series (final concentrations: 100 to 0.78 μM) then a fixed amount of cytokine in PBS/BSA 1% is added to the compounds, in a final volume of 120 μl per well. […] The cytokine is diluted in series (six concentrations) in a final volume of 120 μl per well. The cytokine is used in the absence of small molecule as well as the range of SPD304 as positive controls and the absence of cytokine and synthetic molecule as negative control. The different mixtures are incubated for 2 h at 37° C. 100 μl of each mixture are then transferred to the microtiter plate, respecting the plate plan previously defined and incubated overnight at 4° C. After three washes, 100 μl of biotinylated anti-cytokine secondary antibody are added to each well, then incubated for 2 h at 37° C. After three washes, 100 μl of Avidin-HRP (1/500th dilution) are added and incubated for 30 minutes at 37° C. […] The plates are then read with a spectrophotometer at 450 nm, measuring the optical density for each well.
as §2, §3

TNFα = TNFα (Homo sapiens, UniProt P01375); test: Immunoassay binding test, TNFa; conditions: compounds 100 to 0.78 μM; TNFα 10 ng/ml, receptor 100 ng/ml; read-out: BINDING TNF IC50
Experimental: as §1, with “C.” for “C. Synthetic compounds are diluted in series (final concentrations: 100 to 0.78 μM) then a fixed amount of cytokine in PBS/BSA 1% is added to the compounds, in a final volume of 120 μl per well.”
as §2, §3

TNFa/TNFRI interaction = TNFa/TNFRI interaction (Homo sapiens, UniProt P01375); test: TNFa/TNFRI interaction displacement test; format: binding; conditions: for Displacement EC50 TNFa in presence of compound: Difference: Compound EC50 minus SPD304 EC50; for Displacement (%): compounds at 50 μM, human TNFRI 100 ng/ml;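 on Displacement EC50 TNFa in presence of compound: Difference: SPD304 reference at 20 µM final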
Experimental: Microtiter plates (96 wells) are covered with 100 μl per well of human TNFRI, at a concentration of 100 ng/ml, then incubated overnight at 4° C. The following day, after two washes in PBS/Tween20, the plates are saturated with 150 μl of PBS/BSA 2% for 2 h at 37° C.
100 μl of each mixture are then transferred to the microtiter plate, respecting the established plate plan and incubated overnight at 4° C.
After three washes, 100 μl of biotinylated anti-cytokine secondary antibody are added to each well and incubated for 2 h at 37° C. After three washes, 100 Avl Avidin-HRP (dilution 1/500th) are added and incubated for 30 minutes at 37° C. […] The plates are then read with a spectrophotometer at 450 nm, measuring the optical density (OD) for each well.

IL-6 = IL-6 (Homo sapiens, UniProt P05231); test: Immunoassay binding test, IL-6 (gp130 receptor, IL-6Ra present); conditions: IL-6Ra 200 ng/ml
Experimental: as §4, §2, §3

Chain of IL-13 (P35225 25-146, species assumed): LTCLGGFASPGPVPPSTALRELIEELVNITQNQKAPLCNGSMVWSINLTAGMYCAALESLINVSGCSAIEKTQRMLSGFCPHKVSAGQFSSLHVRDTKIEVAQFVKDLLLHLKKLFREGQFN
Chain of IL-6 (P05231 30-212, species assumed): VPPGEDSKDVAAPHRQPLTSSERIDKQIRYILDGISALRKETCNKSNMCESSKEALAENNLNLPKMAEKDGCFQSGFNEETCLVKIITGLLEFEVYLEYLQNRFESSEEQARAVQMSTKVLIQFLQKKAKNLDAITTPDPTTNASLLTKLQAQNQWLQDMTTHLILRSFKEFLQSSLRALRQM
Chain of TNFa/TNFRI interaction (P01375 77-233 limits assumed): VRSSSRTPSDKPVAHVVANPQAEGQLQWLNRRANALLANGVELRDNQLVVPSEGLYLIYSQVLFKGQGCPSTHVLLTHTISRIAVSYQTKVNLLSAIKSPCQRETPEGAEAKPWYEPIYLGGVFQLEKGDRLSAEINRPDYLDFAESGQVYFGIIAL
Chain of TNFα (P01375 77-233 limits assumed, species assumed): as the sequence (P01375 77-233 limits assumed) above

| Compound | BINDING IL13 % Neutra at 100 μM (IL-13) [%] | IC50 (IL-13) [µM] | BINDING IL4 % Neutra at 100 μM (IL-4) [%] | IC50 (IL-4) [µM] | IC50 (TNFα) [µM] | Displacement EC50 TNFa in presence of compound: Difference (TNFa/TNFRI interaction) | Displacement (%) (TNFa/TNFRI interaction) | BINDING IL6 % Neutra at 100 μM (IL-6) [%] |
| --- | --- | --- | --- | --- | --- | --- | --- | --- |
| O=S(=O)(c1ccccc1)n1cc(CN(Cc2ccccn2)CC2CCCN(C3CCCCC3)C2)c2ccccc21 (stereo not drawn) [Compound 1] | 94.6 | 23.5 | 97.5 | 4.1 | 11.9 | 9.1 ng/mL | 178 | 5.5 |
| FC(F)(F)c1cccc(-n2cc(CN(Cc3ccccn3)CC3CCCN(C4CCCCC4)C3)c3ccccc32)c1 (stereo not drawn) [Compound 2] | 97.1 | 1.4 | 97.8 | 3.3 | 19.9 | 14.9 ng/mL | 183 | 2 |
| FC(F)(F)c1cccc(-n2cc(CN(Cc3cccnc3)CC3CCCN(C4CCCCC4)C3)c3ccccc32)c1 (stereo not drawn) [Compound 4] | 92.2 | 9.9 | 98.3 | 4 | 21.3 | Difference = 9 ng/ml | 221 | 5.2 |
| O=S(=O)(c1ccccc1)n1cc(CN(Cc2ccncc2)CC2CCCN(C3CCCCC3)C2)c2ccccc21 (stereo not drawn) [Compound 5] | 84.9 | > 50 | 96.9 | 7.8 | 11.1 | 8.3 ng/mL | 194 | 2.1 |
| FC(F)(F)c1cccc(-n2cc(CN(Cc3ccncc3)CC3CCCN(C4CCCCC4)C3)c3ccccc32)c1 (stereo not drawn) [Compound 6] | 98.6 | 3.1 | 95.7 | 3.6 | 16.6 | 3.4 ng/mL | 153 | 8.7 |
| O=S(=O)(c1ccccc1)n1cc(CN(CCCNC2CCCCC2)Cc2cccnc2)c2ccccc21 [Compound 7] | 86.2 | > 50 | 97.3 | 8.5 | 9.4 | 7.8 ng/mL | 146 | 3.3 |
| O=S(=O)(c1ccccc1)n1cc(CN(CCCCCNC2CCCCC2)Cc2cccnc2F)c2ccccc21 [Compound 46, N1-cyclohexyl-N5-((2-fluoropyridin-3-yl)methyl)-N5-((1-(phenylsulfonyl)-1H-indol-3-yl)methyl)pentane-1,5-diamine] | – | – | – | – | 10.8 | – | 124 | – |
| CN(CCCCN(Cc1ccc(F)nc1)Cc1cn(S(=O)(=O)c2ccccc2)c2ccccc12)C1CCCCC1 [Compound 57, N1-cyclohexyl-N4-((6-fluoropyridin-3-yl)methyl)-N1-methyl-N4-((1-(phenylsulfonyl)-1H-indol-3-yl)methyl)butane-1,4-diamine] | – | – | – | – | 9.4 | – | 113 | – |
| O=S(=O)(c1ccccc1)n1cc(CN(CCCCCNCc2ccnc(F)c2)Cc2ccnc(F)c2)c2ccccc21 [Compound 61] | – | – | – | – | 29.8 | – | 64 | – |
| CN(CCCCN(Cc1cccnc1F)Cc1cn(S(=O)(=O)N2CCCC2)c2ccccc12)C1CCCCC1 [Compound 110, N1-cyclohexyl-N4-((2-fluoropyridin-3-yl)methyl)-N1-methyl-N4-((1-(pyrrolidin-1-ylsulfonyl)-1H-indol-3-yl)methyl)butane-1,4-diamine] | – | – | – | – | 17 | – | 83 | – |
| CN(CCOCCN(Cc1cccnc1F)Cc1cn(S(=O)(=O)N2CCCCC2)c2ccccc12)C1CCCCC1 [Compound 112, N-(2-(2-(((2-fluoropyridin-3-yl)methyl) ((1-(piperidin-1-ylsulfonyl)-1H-indol-3-yl)methyl)amino)ethoxy)ethyl)-N-methylcyclohexanamine] | – | – | – | – | 13 | – | 245 | – |

The next molecules have a lower IC50 (TNFα) than those just listed; values first:

| BINDING IL13 % Neutra at 100 μM (IL-13) [%] | IC50 (IL-13) [µM] | BINDING IL4 % Neutra at 100 μM (IL-4) [%] | IC50 (IL-4) [µM] | IC50 (TNFα) [µM] | Displacement EC50 TNFa in presence of compound: Difference (TNFa/TNFRI interaction) | Displacement (%) (TNFa/TNFRI interaction) | BINDING IL6 % Neutra at 100 μM (IL-6) [%] | Compound |
| --- | --- | --- | --- | --- | --- | --- | --- | --- |
| – | – | – | – | 8.6 | – | 109 | – | O=S(=O)(c1ccccc1)n1cc(CN(CCCCNC2CCCCC2)Cc2ccnc(F)c2)c2ccccc21 [Compound 44, N1-cyclohexyl-N4-((2-fluoropyridin-4-yl)methyl)-N4-((1-(phenylsulfonyl)-1H-indol-3-yl)methyl)butane-1,4-diamine] |
| – | – | 92.8 | 4.6 | 7.9 | – | 154 | 1 | CN(CCCCN(Cc1cccnc1F)Cc1cn(S(=O)(=O)c2ccccc2)c2ccccc12)C1CCCCCCC1 [Compound 76, N′-cyclooctyl-N^4-((2-fluoropyridin-3-yl)methyl)-N′-methyl-N^4-((1-(phenylsulfonyl)-1H-indol-3-yl)methyl)butane-1,4-diamine] |
| – | – | – | – | 7.8 | – | 172 | – | O=S(=O)(c1ccccc1)n1cc(CN(CCCCNC2CCCCC2)Cc2ccc(F)nc2)c2ccccc21 [Compound 55, N1-cyclohexyl-N4-((6-fluoropyridin-3-yl)methyl)-N4-((1-(phenylsulfonyl)-1H-indol-3-yl)methyl)butane-1,4-diamine] |
| – | – | – | – | 6.7 | – | 219 | – | CCCN(CCCCN(Cc1cccnc1F)Cc1cn(S(=O)(=O)c2ccccc2)c2ccccc12)C1CCCCC1 [Compound 67, N′-cyclohexyl-N^4-((2-fluoropyridin-3-yl)methyl)-N^4-((1-(phenylsulfonyl)-1H-indol-3-yl)methyl)-N′-propylbutane-1,4-diamine] |
| – | – | – | – | 6 | – | 224 | – | CN1CCN(S(=O)(=O)n2cc(CN(CCOCCN(C)C3CCCCC3)Cc3cccnc3F)c3ccccc32)CC1 [Compound 111, N-(2-(2-(((2-fluoropyridin-3-yl)methyl)((1-((4-methylpiperazin-1-yl)sulfonyl)-1H-indol-3-yl)methyl)amino)ethoxy)ethyl)-N-methylcyclohexanamine] |
| 96.9 | – | 96.4 | 6.6 | 4.6 | 7.4 ng/mL | 196 | 5 | O=S(=O)(c1ccccc1)n1cc(CN(Cc2cccnc2)CC2CCCN(C3CCCCC3)C2)c2ccccc21 (stereo not drawn) [Compound 3] |
